From US9701689B2, “Substituted pyridines and pyridazines as CCR10 receptor inhibitors” (KYOWA HAKKO KIRIN CO., LTD., priority 2012, dated 2017)

target: T1, human CCR10 (Homo sapiens, UniProt P46092); assay: CCR10 antagonistic effect: calcium assay of human CCR10 (CTACK-induced increase of intracellular calcium in hCCR10G16 cells); assay type: cell-based; conditions: at a concentration of not more than 1000 nmol/L; human CCR10-expressing hCCR10G16 cells, 300 nmol/L CTACK added; read-out: inhibition of increase in the calcium ion concentration
T1 construct: expressed in transfected cells; host or cells: KJMGER8 cells (Namalwa cell-derived line), beta-estradiol-induced; hCCR10G16 cells
T1 sequence (P46092 1-362): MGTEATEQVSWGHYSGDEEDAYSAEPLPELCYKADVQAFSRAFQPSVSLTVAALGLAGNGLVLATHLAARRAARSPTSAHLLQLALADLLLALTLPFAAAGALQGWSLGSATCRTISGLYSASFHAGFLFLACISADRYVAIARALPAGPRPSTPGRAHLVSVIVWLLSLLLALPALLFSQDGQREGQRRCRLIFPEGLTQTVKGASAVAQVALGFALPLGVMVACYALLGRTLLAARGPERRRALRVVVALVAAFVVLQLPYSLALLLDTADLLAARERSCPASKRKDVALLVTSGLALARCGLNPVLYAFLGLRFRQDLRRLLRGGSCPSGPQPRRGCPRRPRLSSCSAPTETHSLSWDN
How it was run: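 Inhibition of CTACK-evoked calcium flux (max minus min Fluo-3 fluorescence over ~5 min, FDSS) was calculated against control in β-estradiol-induced human CCR10/Gα16 KJMGER8 cells, after 30 min compound preincubation at 37 °C; CTACK added from a 300 nmol/L solution.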

Row | Compound | inhibition at up to 1 µM
1 | CCNC(=O)NS(=O)(=O)c1cc(Nc2ccc(Cl)cc2C)c(C(=O)N2CCC(c3ccc(F)cc3)CC2)cn1 [Compound 169, 4-(4-chloro-2-methylphenylamino)-N-(ethylcarbamoyl)-5-[4-(4-fluorophenyl)piperidine-1-carbonyl]pyridine-2-sulfonamide] | ≥ 50%
2 | CCCNC(=O)NS(=O)(=O)c1cc(Nc2ccc(Cl)cc2C)c(C(=O)N2CCC(c3ccc(F)cc3)CC2)cn1 [Compound 170, 4-(4-chloro-2-methylphenylamino)-5-[4-(4-fluorophenyl)piperidine-1-carbonyl]-N-(propylcarbamoyl)pyridine-2-sulfonamide] | ≥ 50%
3 | Cc1cc(F)ccc1Nc1cc(S(=O)(=O)NC(=O)NC(C)C)ncc1C(=O)N1CCC(c2ccc(F)cc2)CC1 [Compound 171, 4-(4-fluoro-2-methylphenylamino)-5-[4-(4-fluorophenyl)piperidine-1-carbonyl]-N-(isopropylcarbamoyl)pyridine-2-sulfonamide] | ≥ 50%
4 | Cc1cc(F)ccc1Nc1cc(S(=O)(=O)NC(=O)NC2CC2)ncc1C(=O)N1CCC(c2ccc(F)cc2)CC1 [Compound 172, N-(cyclopropylcarbamoyl)-4-(4-fluoro-2-methylphenylamino)-5-[4-(4-fluorophenyl)piperidine-1-carbonyl]pyridine-2-sulfonamide] | ≥ 50%
5 | CCOC(=O)NS(=O)(=O)c1cc(Nc2ccc(Cl)cc2C)c(C(=O)N2CCC(c3ccc(F)cc3)CC2)cn1 [Compound 173, ethyl 4-(4-chloro-2-methylphenylamino)-5-[4-(4-fluorophenyl)piperidine-1-carbonyl]pyridin-2-ylsulfonylcarbamate] | ≥ 50%
6 | CCOC(=O)NS(=O)(=O)c1cc(Nc2ccc(F)cc2C)c(C(=O)N2CCC(c3ccc(F)cc3)CC2)cn1 [Compound 174, ethyl 4-(4-fluoro-2-methylphenylamino)-5-[4-(4-fluorophenyl)piperidine-1-carbonyl]pyridin-2-ylsulfonylcarbamate] | ≥ 50%
7 | Cc1cc(F)ccc1Nc1cc(S(=O)(=O)NC(=O)OC(C)C)ncc1C(=O)N1CCC(c2ccc(F)cc2)CC1 [Compound 175, isopropyl 4-(4-fluoro-2-methylphenylamino)-5-[4-(4-fluorophenyl)piperidine-1-carbonyl]pyridin-2-ylsulfonylcarbamate] | ≥ 50%
8 | COc1ccc(Nc2c(C(=O)N3CCC(c4ccc(F)cc4)CC3)cnc(S(N)(=O)=O)c2Cl)c(Cl)c1 [Compound 179, 3-chloro-4-(2-chloro-4-methoxyphenylamino)-5-[4-(4-fluorophenyl)piperidine-1-carbonyl]pyridine-2-sulfonamide] | ≥ 50%
9 | NS(=O)(=O)c1ncc(C(=O)N2CCC(c3ccc(F)cc3)CC2)c(Nc2c(F)cccc2F)c1Cl [Compound 182, 3-chloro-4-(2,6-difluorophenylamino)-5-[4-(4-fluorophenyl)piperidine-1-carbonyl]pyridine-2-sulfonamide] | ≥ 50%
10 | Cc1cc(F)ccc1Nc1c(C(=O)N2CCC(c3ccc(F)cc3)CC2)cnc(S(=O)(=O)N2CCC(N)CC2)c1Cl [Compound 184, [6-(4-aminopiperidin-1-ylsulfonyl)-5-chloro-4-(4-fluoro-2-methylphenylamino)pyridin-3-yl][4-(4-fluorophenyl)piperidin-1-yl]methanone] | ≥ 50%
11 | Cc1cc(F)ccc1Nc1c(C(=O)N2CCC(c3ccc(F)cc3)CC2)cnc(S(=O)(=O)N2C(=O)OCC2(C)C)c1Cl [Compound 187, 3-{3-chloro-4-(4-fluoro-2-methylphenylamino)-5-[4-(4-fluorophenyl)piperidine-1-carbonyl]pyridin-2-ylsulfonyl}-4,4-dimethyloxazolidin-2-one] | ≥ 50%
12 | Cc1cc(F)ccc1Nc1c(C(=O)N2CCC(c3ccc(F)cc3)CC2)cnc(S(=O)(=O)Nc2nccs2)c1Cl [Compound 188, 3-chloro-4-(4-fluoro-2-methylphenylamino)-5-[4-(4-fluorophenyl)piperidine-1-carbonyl]-N-(thiazol-2-yl)pyridine-2-sulfonamide] | ≥ 50%
13 | Cc1cc(F)ccc1Nc1c(C(=O)N2CCC(c3ccc(F)cc3)CC2)cnc(S(=O)(=O)Nc2c(C)noc2C)c1Cl [Compound 189, 3-chloro-N-(3,5-dimethylisoxazol-4-yl)-4-(4-fluoro-2-methylphenylamino)-5-[4-(4-fluorophenyl)piperidine-1-carbonyl]pyridine-2-sulfonamide] | ≥ 50%
14 | Cc1cc(F)ccc1Nc1c(C(=O)N2CCC(c3ccc(F)cc3)CC2)cnc(S(=O)(=O)Nc2ccon2)c1Cl [Compound 190, 3-chloro-4-(4-fluoro-2-methylphenylamino)-5-[4-(4-fluorophenyl)piperidine-1-carbonyl]-N-(isoxazol-3-yl)pyridine-2-sulfonamide] | ≥ 50%
15 | Cc1cc(F)ccc1Nc1c(C(=O)N2CCC(c3ccc(F)cc3)CC2)cnc(S(=O)(=O)n2ccc3ncccc32)c1Cl [Compound 192, [6-(1H-pyrrolo[3,2-b]pyridin-1-ylsulfonyl)-5-chloro-4-(4-fluoro-2-methylphenylamino)pyridin-3-yl][4-(4-fluorophenyl)piperidin-1-yl]methanone] | ≥ 50%
16 | CONS(=O)(=O)c1ncc(C(=O)N2CCC(c3ccc(F)cc3)CC2)c(Nc2ccc(F)cc2C)c1Cl [Compound 193, 3-chloro-4-(4-fluoro-2-methylphenylamino)-5-[4-(4-fluorophenyl)piperidine-1-carbonyl]-N-methoxypyridine-2-sulfonamide] | ≥ 50%
17 | Cc1c(S(N)(=O)=O)ncc(C(=O)N2CCC(c3ccc(F)cc3)CC2)c1Nc1cccc(Cl)c1 [Compound 197, 4-(3-chlorophenylamino)-5-[4-(4-fluorophenyl)piperidine-1-carbonyl]-3-methylpyridine-2-sulfonamide] | ≥ 50%

Other lines, results leading:

Row | inhibition at up to 1 µM | Compound
18 | ≥ 50% | Cc1cc(Cl)ccc1Nc1c(C(=O)N2CCC(c3ccc(F)cc3)CC2)cnc(S(N)(=O)=O)c1Cl [Compound 177, 3-chloro-4-(4-chloro-2-methylphenylamino)-5-[4-(4-fluorophenyl)piperidine-1-carbonyl]pyridine-2-sulfonamide]
19 | ≥ 50% | COc1ccc(Nc2c(C(=O)N3CCC(c4ccc(F)cc4)CC3)cnc(S(N)(=O)=O)c2Cl)c(C)c1 [Compound 178, 3-chloro-5-[4-(4-fluorophenyl)piperidine-1-carbonyl]-4-(4-methoxy-2-methylphenylamino)pyridine-2-sulfonamide]
20 | ≥ 50% | Cc1c(Cl)cccc1Nc1c(C(=O)N2CCC(c3ccc(F)cc3)CC2)cnc(S(N)(=O)=O)c1Cl [Compound 180, 3-chloro-4-(3-chloro-2-methylphenylamino)-5-[4-(4-fluorophenyl)piperidine-1-carbonyl]pyridine-2-sulfonamide]
21 | ≥ 50% | Cc1ccc(Nc2c(C(=O)N3CCC(c4ccc(F)cc4)CC3)cnc(S(N)(=O)=O)c2Cl)cc1Cl [Compound 181, 3-chloro-4-(3-chloro-4-methylphenylamino)-5-[4-(4-fluorophenyl)piperidine-1-carbonyl]pyridine-2-sulfonamide]
22 | ≥ 50% | Cc1cc(F)ccc1Nc1c(C(=O)N2CCC(c3ccc(F)cc3)CC2)cnc(S(=O)(=O)Nc2ccccc2)c1Cl [Compound 191, 3-chloro-4-(4-fluoro-2-methylphenylamino)-5-[4-(4-fluorophenyl)piperidine-1-carbonyl]-N-phenylpyridine-2-sulfonamide]
23 | ≥ 50% | Cc1cc(F)ccc1Nc1c(C(=O)N2CCC(c3ccc(F)cc3)CC2)cnc(S(N)(=O)=NC(=O)c2ccccc2)c1Cl (stereo not drawn) [Compound 194, 3-chloro-4-(4-fluoro-2-methylphenylamino)-5-[4-(4-fluorophenyl)piperidine-1-carbonyl]-N′-benzoylpyridine-2-sulfonimidamide]
24 | ≥ 50% | Cc1cc(F)ccc1Nc1c(C(=O)N2CCC(C#N)(c3ccccc3)CC2)cnc(S(N)(=O)=O)c1Cl [Compound 195, 3-chloro-5-(4-cyano-4-phenylpiperidine-1-carbonyl)-4-(4-fluoro-2-methylphenylamino)pyridine-2-sulfonamide]
25 | ≥ 50% | Cc1cc(Cl)ccc1Nc1c(C(=O)N2CCC(c3ccc(F)cc3)CC2)cnc(S(N)(=O)=O)c1C [Compound 196, 4-(4-chloro-2-methylphenylamino)-5-[4-(4-fluorophenyl)piperidine-1-carbonyl]-3-methylpyridine-2-sulfonamide]
26 | ≥ 50% | Cc1cccc(Nc2c(C(=O)N3CCC(O)(c4ccc(F)cc4)CC3)cnc(S(N)(=O)=O)c2Cl)c1 [Compound 199, 3-chloro-5-[4-(4-fluorophenyl)-4-hydroxypiperidine-1-carbonyl]-4-(m-tolylamino)pyridine-2-sulfonamide]
27 | ≥ 50% | Cc1cc(F)ccc1Nc1c(C(=O)N2CCC(c3ccc(F)cc3)CC2)cnc(S(=N)(N)=O)c1Cl (stereo not drawn) [Compound 200, 3-chloro-4-(4-fluoro-2-methylphenylamino)-5-[4-(4-fluorophenyl)piperidine-1-carbonyl]pyridine-2-sulfonimidamide]
